# Results from US12029726B1, “Composition and method of treating conditions associated with extracellular matrix dysfunction by administering micronutrient composition” (priority 2023, dated 2024).
# Test system: cultured human chondrocytes and synovial fibroblasts
# Assay: LPS-induced arthritic processes in cultured human synovial cells (IL6, MMP13 release; Col2, Aggr, HA content), summary
# Assay type: cell-based
# Settings: added to cell culture medium with LPS
# Excerpt: Inflammation process was initiated by additions of bacterial lipopolysaccharide (LPS) to cell culture medium. Tested parameters included cellular release of interleukin 6 (IL6) as an indicator of induced inflammation, cell culture accumulation of specific extracellular matrix (ECM) components, such as collagen type II (Col2), aggrecan (Aggr) and hyaluronic acid (HA), and release of matrix metalloproteinase 13 (MMP13) as an indicator of cartilage digesting process. Addition of LPS to cell cultures induced inflammation process characterized by dramatic increase in cellular release of IL6 and MMP13 and reduction in cell culture content of Col2, Aggr and HA.
# Experiments: For the experiments cells were seeded in 96 well plastic cell culture plates covered with fibronectin (Greiner Bio-One) and grown to a confluent layer at 37° C. and 5% CO2 in corresponding cell culture medium. Cells were supplemented with 3 mcg/ml bacterial lipopolysaccharide (LPS, inflammation inducing treatment) and micronutrient composition were applied for indicated period in growth medium as indicated in the corresponding figure legends. At the end of the incubation cultured cells layers were washed twice with phosphate buffered saline (PBS) and treated in two ways: for the exposition of extracellular matrix (ECM) cells were lysed by 3 min incubation with 0.5% Triton X100/PBS which was followed by 3 min incubation with 25 mM NH4OH/PBS at room temperature or the cells were fixed by using 3% formaldehyde/PBS for one hour at 4° C. […]
# Aggrecan, Collagen type II and Hyaluronic Acid content in 96 well plates prepared as described above, which is either exposed ECM or in fixed cells, was assayed by standard sandwich type immunoassay (ELISA, all reagents from Sigma-Aldrich) using rabbit polyclonal anti aggrecan, rabbit polyclonal anti collagen type II antibodies or biotinylated Hyaluronic Acid binding protein as primary treatment and goat anti rabbit IgG antibodies conjugated with horse radish peroxidase (HRP) or HRP-conjugated High Density Streptavidin as secondary treatment, respectively. Assayed component content was estimated by color changing reaction of HRP substrate (TMB substrate solution, Sigma-Aldrich) measured as 450 nm optical density using microplate optical density reader (Molecular Devices). […]
# Effects of Micronutrient composition on Release of Inflammation Markers in Cultured Human Synovial Cells: Inflammation process was induced in human chondrocytes cultured in 96 well plates with LPS as described above. […] At the end of indicated incubation period interleukin 6 (IL6) and matrix metalloproteinase 13 (MMP13) levels in conditioned cell culture media were measured by ELISA using assay kits (R&D Systems) in accordance with manufacturer's protocol. […]
row,Compound,"reversal of LPS-induced arthritic processes (increase in IL6 and MMP13 release, reduction in Col2, Aggr and HA content)"
1,O=C(O)CCC(=O)C(=O)O [Alpha Keto-Glutarate],reversed to different degrees
2,O=C([O-])/C=C/C(=O)[O-].[Fe+2] [Iron (II) Fumarate],reversed to different degrees
3,NC(=O)CC[C@H](N)C(=O)O [L-Glutamine],reversed to different degrees
4,C[S+](CC[C@H](N)C(=O)[O-])C[C@H]1O[C@@H](n2cnc3c(N)ncnc32)[C@H](O)[C@@H]1O (stereo partly shown) [S-Adenosyl Methionine],reversed to different degrees
